Source: PubChem BioAssay (NCI)
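Briefly, cells in 96-well plates were exposed to five compound concentrations for 48 h, and endpoints were estimated by linear interpolation. TGI: total growth inhibition.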

Columns and labels:
Assay in all cases: NCI-60 cell line screen, 48 h
[1] = test system: MOLT-4 leukemia
[2] = test system: HT29 colon
[3] = test system: SR leukemia
[4] = test system: SK-MEL-5 melanoma
[5] = test system: LOX IMVI melanoma
[6] = test system: UACC-62 melanoma
[7] = test system: UACC-257 melanoma
[8] = test system: CAKI-1 renal
[9] = test system: DU-145 prostate
[10] = test system: SK-OV-3 ovarian
[11] = test system: TK-10 renal
[12] = test system: COLO 205 colon
[13] = test system: MDA-MB-435
[14] = test system: IGROV1 ovarian
[15] = test system: ACHN renal
[16] = test system: CCRF-CEM leukemia
[17] = test system: NCI-H226 lung
[18] = test system: EKVX NSCLC
[19] = test system: SK-MEL-2 melanoma
[20] = test system: NCI-H522 lung
[21] = test system: U251 CNS
[22] = test system: RXF 393 renal
[23] = test system: A549 NSCLC
[24] = test system: SK-MEL-28 melanoma
[25] = test system: MDA-MB-231 breast
[26] = test system: K-562 leukemia
[27] = test system: MDA-N
[28] = test system: HOP-92 NSCLC
[29] = test system: OVCAR-3 ovarian
[30] = test system: HCT-116 colon
[31] = test system: UO-31 renal
[32] = test system: A498 renal
[33] = test system: MALME-3M melanoma
[34] = test system: SW-620 colon
[35] = test system: SF-539 CNS
[36] = test system: SF-295 CNS
[37] = test system: 786-0 renal
[38] = test system: HL-60(TB) leukemia
[39] = test system: PC-3 prostate
[40] = test system: NCI-H23 lung
[41] = test system: OVCAR-8 ovarian
[42] = test system: SF-268 CNS
[43] = test system: OVCAR-4 ovarian
[44] = test system: HCT-15 colon
[45] = test system: BT-549 breast
[46] = test system: KM12 colon
[47] = test system: SNB-75 CNS
[48] = test system: T-47D breast
[49] = test system: MCF7 breast
[50] = test system: M14 melanoma
[51] = test system: NCI/ADR-RES ovarian
[52] = test system: OVCAR-5 ovarian
[53] = test system: RPMI-8226 leukemia
[54] = test system: HOP-62 NSCLC
[55] = test system: HS 578T breast
[56] = test system: NCI-H460 lung
[57] = test system: SNB-19 CNS
[58] = test system: SN12C renal

## O=S(=O)(O)c1ccc2cc(N=Nc3cc(S(=O)(=O)O)c4cccnc4c3O)ccc2c1
[1]
  TGI: > 100 µM
[2]
  TGI: > 100 µM
[3]
  TGI: > 100 µM
[4]
  TGI: > 100 µM
[5]
  TGI: > 100 µM
[6]
  TGI: > 100 µM
[7]
  TGI: > 100 µM
[8]
  TGI: > 100 µM
[9]
  TGI: > 100 µM
[10]
  TGI: > 100 µM
[11]
  TGI: > 100 µM
[12]
  TGI: > 100 µM
[13]
  TGI: > 100 µM
[14]
  TGI: > 100 µM
[15]
  TGI: > 100 µM
[16]
  TGI: > 100 µM
[17]
  TGI: > 100 µM
[18]
  TGI: > 100 µM
[19]
  TGI: > 100 µM
[20]
  TGI: > 100 µM
[21]
  TGI: > 100 µM
[22]
  TGI: > 100 µM
[23]
  TGI: > 100 µM
[24]
  TGI: > 100 µM
[25]
  TGI: > 100 µM
[26]
  TGI: > 100 µM
[27]
  TGI: > 100 µM
[28]
  TGI: > 100 µM
[29]
  TGI: > 100 µM
[30]
  TGI: > 100 µM
[31]
  TGI: > 100 µM
[32]
  TGI: > 100 µM
[33]
  TGI: > 100 µM
[34]
  TGI: > 100 µM
[35]
  TGI: > 100 µM
[36]
  TGI: > 100 µM
[37]
  TGI: > 100 µM
[38]
  TGI: 4.97 µM
[39]
  TGI: > 100 µM
[40]
  TGI: > 100 µM
[41]
  TGI: > 100 µM
[42]
  TGI: > 100 µM
[43]
  TGI: > 100 µM
[44]
  TGI: > 100 µM
[45]
  TGI: > 100 µM
[46]
  TGI: > 100 µM
[47]
  TGI: > 100 µM
[48]
  TGI: > 100 µM
[49]
  TGI: > 100 µM
[50]
  TGI: > 100 µM
[51]
  TGI: > 100 µM
[52]
  TGI: > 100 µM
[53]
  TGI: > 100 µM
[54]
  TGI: > 100 µM
[55]
  TGI: > 100 µM
[56]
  TGI: > 100 µM
[57]
  TGI: > 100 µM

## S=C1CC(c2ccc(Cl)cc2)Sc2ccccc2N1 (stereo not given)
[1]
  TGI: > 10 µM
[2]
  TGI: > 100 µM
[3]
  TGI: > 100 µM
[4]
  TGI: > 100 µM
[5]
  TGI: > 100 µM
[6]
  TGI: > 100 µM
[7]
  TGI: > 100 µM
[8]
  TGI: > 100 µM
[9]
  TGI: > 100 µM
[10]
  TGI: 56.9 µM
[11]
  TGI: > 100 µM
[12]
  TGI: > 100 µM
[13]
  TGI: > 100 µM
[14]
  TGI: > 100 µM
[15]
  TGI: > 100 µM
[16]
  TGI: > 100 µM
[17]
  TGI: > 100 µM
[18]
  TGI: > 100 µM
[20]
  TGI: > 100 µM
[21]
  TGI: > 100 µM
[22]
  TGI: 48.6 µM
[23]
  TGI: > 100 µM
[24]
  TGI: > 100 µM
[25]
  TGI: > 100 µM
[26]
  TGI: > 10 µM
[27]
  TGI: > 100 µM
[58]
  TGI: > 100 µM
[29]
  TGI: 68 µM
[30]
  TGI: > 100 µM
[31]
  TGI: > 100 µM
[33]
  TGI: > 100 µM
[36]
  TGI: > 100 µM
[37]
  TGI: > 100 µM
[38]
  TGI: > 100 µM
[39]
  TGI: > 100 µM
[40]
  TGI: > 100 µM
[41]
  TGI: > 100 µM
[42]
  TGI: 79.3 µM
[43]
  TGI: > 100 µM
[44]
  TGI: > 100 µM
[45]
  TGI: > 100 µM
[46]
  TGI: > 100 µM
[47]
  TGI: > 10 µM
[48]
  TGI: > 100 µM
[49]
  TGI: > 100 µM
[50]
  TGI: > 100 µM
[51]
  TGI: > 100 µM
[52]
  TGI: > 100 µM
[53]
  TGI: > 100 µM
[54]
  TGI: 35.1 µM
[55]
  TGI: 40 µM
[56]
  TGI: > 100 µM
[57]
  TGI: 94 µM
